What was measured:
[1] = target: T1, Retinoic acid receptor RXR-gamma (Homo sapiens, UniProt P48443)
T1 sequence (P48443 whole entry): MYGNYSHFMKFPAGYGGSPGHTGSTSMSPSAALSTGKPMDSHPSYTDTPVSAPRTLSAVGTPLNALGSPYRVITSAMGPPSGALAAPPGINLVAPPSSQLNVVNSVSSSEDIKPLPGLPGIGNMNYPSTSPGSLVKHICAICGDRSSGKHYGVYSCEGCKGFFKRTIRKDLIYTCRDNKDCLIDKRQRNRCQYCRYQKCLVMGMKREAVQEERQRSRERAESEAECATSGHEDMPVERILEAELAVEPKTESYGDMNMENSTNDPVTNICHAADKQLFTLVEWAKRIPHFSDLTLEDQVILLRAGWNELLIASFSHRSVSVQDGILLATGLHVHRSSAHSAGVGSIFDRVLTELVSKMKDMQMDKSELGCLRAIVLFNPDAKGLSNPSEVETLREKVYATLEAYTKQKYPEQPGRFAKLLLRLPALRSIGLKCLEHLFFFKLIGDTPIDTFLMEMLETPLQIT

[2] = target: T2, Retinoic acid receptor RXR-alpha (Homo sapiens, UniProt P19793)
T2 sequence (P19793 whole entry): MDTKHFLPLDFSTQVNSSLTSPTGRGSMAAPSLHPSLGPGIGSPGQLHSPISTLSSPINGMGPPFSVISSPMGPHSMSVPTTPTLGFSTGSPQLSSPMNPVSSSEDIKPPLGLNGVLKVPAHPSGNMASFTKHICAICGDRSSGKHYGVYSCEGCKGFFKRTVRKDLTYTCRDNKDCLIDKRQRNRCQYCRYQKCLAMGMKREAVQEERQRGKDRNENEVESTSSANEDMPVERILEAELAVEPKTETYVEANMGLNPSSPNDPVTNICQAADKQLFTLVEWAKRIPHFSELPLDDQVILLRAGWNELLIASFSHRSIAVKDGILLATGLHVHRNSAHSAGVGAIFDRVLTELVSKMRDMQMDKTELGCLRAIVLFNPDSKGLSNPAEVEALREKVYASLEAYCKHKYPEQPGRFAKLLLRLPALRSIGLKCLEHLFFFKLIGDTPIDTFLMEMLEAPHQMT

[3] = target: T3, Retinoic acid receptor RXR-beta (Homo sapiens, UniProt P28702)
T3 sequence (P28702 whole entry): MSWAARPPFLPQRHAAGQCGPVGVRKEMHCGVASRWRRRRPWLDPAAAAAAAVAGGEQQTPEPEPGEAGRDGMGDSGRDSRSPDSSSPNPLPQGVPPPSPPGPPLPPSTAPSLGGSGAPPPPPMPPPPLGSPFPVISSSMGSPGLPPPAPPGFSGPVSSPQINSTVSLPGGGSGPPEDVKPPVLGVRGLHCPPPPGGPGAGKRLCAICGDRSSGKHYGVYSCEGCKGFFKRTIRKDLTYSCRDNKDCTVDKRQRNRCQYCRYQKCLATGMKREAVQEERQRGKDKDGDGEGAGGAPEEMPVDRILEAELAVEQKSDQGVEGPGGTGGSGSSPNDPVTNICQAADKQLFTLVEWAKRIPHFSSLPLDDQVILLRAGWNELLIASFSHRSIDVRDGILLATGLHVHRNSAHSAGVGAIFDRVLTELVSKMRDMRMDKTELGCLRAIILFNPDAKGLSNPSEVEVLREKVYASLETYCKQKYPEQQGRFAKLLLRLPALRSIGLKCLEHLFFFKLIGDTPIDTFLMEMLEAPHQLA
Description: Partial agonist activity at recombinant human RXR beta LBD (298 to 533 residues) expressed in Escherichia coli Rosetta incubated for 16 hrs by Gal4-hybrid reporter gene based Dual-glo luciferase assay

[4] = target: T3, Retinoic acid receptor RXR-beta; assay: Partial agonist activity at full length human RXR beta transfected in HEK293T cells assessed as DR1 activation incubated for 16 hrs by Dual-glo luciferase assay; format: cell-based

| SMILES | EC50 [1] | EC50 [2] | EC50 [3] | EC50 [4] |
| --- | --- | --- | --- | --- |
| CN(c1ccc(Cl)c(Cl)c1)c1cc(Cl)nc(OCCC(=O)O)n1 | 6000 nM |  |  |  |
| Cc1ccc2c(c1)N(c1cc(Cl)nc(OCCC(=O)O)n1)CCC2 |  | 38 nM |  |  |
| CN(c1ccccc1)c1cc(Cl)nc(OCCC(=O)O)n1 | 31000 nM | 4200 nM |  |  |
| CC1CCN(c2cc(Cl)nc(OCCC(=O)O)n2)c2cc(Cl)ccc21 (stereo unspecified) | 100 nM |  |  |  |
| CN(c1cc(Cl)nc(OCCC(=O)O)n1)c1cccc2c1CCC2 | 1200 nM |  |  |  |
| CC1(C)CCN(c2cc(Cl)nc(OCCC(=O)O)n2)c2ccccc21 | 11 nM | 9 nM |  |  |
| Cc1cccc(N(C)c2cc(Cl)nc(OCCC(=O)O)n2)c1 | 2600 nM | 400 nM |  |  |
| Cc1cccc2c1CCCN2c1cc(Cl)nc(OCCC(=O)O)n1 | 480 nM | 90 nM |  |  |
| CN(c1cccc(C(F)(F)F)c1)c1cc(Cl)nc(OCCC(=O)O)n1 | 2700 nM |  |  |  |
| CN(c1cccc(Br)c1)c1cc(Cl)nc(OCCC(=O)O)n1 | 1800 nM |  |  |  |
| CC1CCN(c2cc(Cl)nc(OCCC(=O)O)n2)c2ccccc21 (stereo unspecified) | 50 nM | 7 nM | 100 nM |  |
| CN(c1cc(Cl)cc(Cl)c1)c1cc(Cl)nc(OCCC(=O)O)n1 |  | 260 nM |  |  |
| CN(c1cc(Cl)nc(OCCC(=O)O)n1)c1cccc(Cl)c1Cl | 14000 nM | 3200 nM |  |  |
| Cc1ccc2c(c1)N(c1cc(Cl)nc(OCCC(=O)O)n1)CCC2C (stereo unspecified) | 60 nM | 40 nM | 34 nM |  |
| O=C(O)CCOc1nc(Cl)cc(N2CCCc3ccccc32)n1 | 680 nM | 110 nM |  |  |
| CC1CCc2ccccc2N1c1cc(Cl)nc(OCCC(=O)O)n1 (stereo unspecified) |  |  |  | Not Active |
| Cc1cc(C)cc(N(C)c2cc(Cl)nc(OCCC(=O)O)n2)c1 | 160 nM |  |  |  |
| O=C(O)CCOc1nc(Cl)cc(N2CCCc3ccc(Cl)cc32)n1 | 140 nM | 19 nM |  |  |
| CN(c1cccc(Cl)c1)c1cc(Cl)nc(OCCC(=O)O)n1 | 2400 nM | 560 nM |  |  |
| CN(c1cc(C(F)(F)F)cc(C(F)(F)F)c1)c1cc(Cl)nc(OCCC(=O)O)n1 |  | 150 nM |  |  |
| CC1Cc2ccccc2N(c2cc(Cl)nc(OCCC(=O)O)n2)C1 (stereo unspecified) | 220 nM | 29 nM | 34 nM |  |
| Cc1cc(C)c2c(c1)N(c1cc(Cl)nc(OCCC(=O)O)n1)CCC2 | 40 nM |  |  |  |

Source: ChEMBL document CHEMBL5537189 (J Med Chem, 2024)
